Experimental data as given in patent publication US20250034173A1, “PYRIDO[4,3-D]PYRIMIDINE COMPOUNDS” (PFIZER INC., priority 2023, published 2025).

How the values were obtained:
Conditions in all cases: GTPγS loaded protein, geomean
KRAS G12D = KRAS G12D (Homo sapiens (Human), UniProt P01116, G12D); assay: SPR binding affinity and kinetics, GTPγS-loaded KRAS G12D
Excerpt: (§1) No additional regeneration was used.
(§2) Compound dissociation was monitored for at least 3600 seconds. […] No additional regeneration was used.
(§3) The adequateness of the fit was judged by c2 values and the randomness of residue distribution.

KRAS G12V = KRAS G12V (Homo sapiens (Human), UniProt P01116, G12V); assay: SPR binding affinity and kinetics, GTPγS-loaded KRAS G12V
Sequence of KRAS G12V (P01116 other isoform, or with tags, fused parts or gaps G12V): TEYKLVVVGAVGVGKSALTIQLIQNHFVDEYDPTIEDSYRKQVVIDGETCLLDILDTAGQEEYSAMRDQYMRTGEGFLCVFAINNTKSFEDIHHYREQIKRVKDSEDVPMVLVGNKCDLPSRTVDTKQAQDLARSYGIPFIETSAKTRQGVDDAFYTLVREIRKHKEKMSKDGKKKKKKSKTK
Excerpt: as §1, §2, §3

KRAS G12C = KRAS G12C (Homo sapiens (Human), UniProt P01116, G12C); assay: SPR binding affinity and kinetics, GTPγS-loaded KRAS G12C
Sequence of KRAS G12C (P01116 other isoform, or with tags, fused parts or gaps G12C): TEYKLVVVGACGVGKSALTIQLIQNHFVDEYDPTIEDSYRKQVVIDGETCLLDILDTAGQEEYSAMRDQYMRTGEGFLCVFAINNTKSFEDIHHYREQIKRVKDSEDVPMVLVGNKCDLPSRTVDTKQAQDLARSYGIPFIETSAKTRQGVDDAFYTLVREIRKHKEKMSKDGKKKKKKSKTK
Excerpt: as §1, §2, §3

KRAS Wild Type = KRAS Wild Type (Homo sapiens (Human), UniProt P01116); assay: SPR binding affinity and kinetics, GTPγS-loaded KRAS Wild Type
Sequence of KRAS Wild Type (P01116 other isoform, or with tags, fused parts or gaps): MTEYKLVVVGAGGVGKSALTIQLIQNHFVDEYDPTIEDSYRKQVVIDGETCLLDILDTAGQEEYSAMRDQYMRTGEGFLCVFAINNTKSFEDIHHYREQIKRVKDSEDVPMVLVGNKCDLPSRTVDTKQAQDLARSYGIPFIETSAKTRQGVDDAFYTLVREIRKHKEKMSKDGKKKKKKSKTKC
Excerpt: as §1, §2, §3

Sequence of KRAS G12D (P01116 other isoform, or with tags, fused parts or gaps G12D): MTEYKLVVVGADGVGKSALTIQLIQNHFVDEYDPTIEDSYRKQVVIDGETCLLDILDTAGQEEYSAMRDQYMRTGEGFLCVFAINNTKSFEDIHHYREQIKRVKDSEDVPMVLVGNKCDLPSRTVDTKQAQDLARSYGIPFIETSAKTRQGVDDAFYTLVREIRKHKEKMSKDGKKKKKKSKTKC

| Kd (KRAS G12D) | Kd (KRAS G12V) | Kd (KRAS G12C) | Kd (KRAS Wild Type) | Compound |
| --- | --- | --- | --- | --- |
| 35 nM | 41 nM | 72 nM | 65 nM | COC/C=C1/CN2CCC[C@@]2(COc2nc3c4c(nc(-c5c(C6CC6)c(Cl)cc6[nH]ncc56)c(F)c4n2)OC[C@@H]2COCCCN32)C1 (relative stereo) [Example 48, (8aS)-5-(6-chloro-5-cyclopropyl-1H-indazol-4-yl)-4-fluoro-2-{[(2E,7aS*)-2-(2-methoxyethylidene)tetrahydro-1H-pyrrolizin-7a(5H)-yl]methoxy}-8a,9,12,13-tetrahydro-8H,11H-7,10-dioxa-1,3,6,13a-tetraazanaphtho[1,8-ab]heptalene] |
| 41 nM | 58 nM | 73 nM | 63 nM | COC/C=C1/CN2CCC[C@@]2(COc2nc3c4c(nc(-c5c(C6CC6)c(Cl)cc6[nH]ncc56)c(F)c4n2)OC[C@@H]2COCCCN32)C1 (relative stereo) [Example 49, (8aS)-5-(6-chloro-5-cyclopropyl-1H-indazol-4-yl)-4-fluoro-2-{[(2E,7aR*)-2-(2-methoxyethylidene)tetrahydro-1H-pyrrolizin-7a(5H)-yl]methoxy}-8a,9,12,13-tetrahydro-8H,11H-7,10-dioxa-1,3,6,13a-tetraazanaphtho[1,8-ab]heptalene] |
| > 1000 nM | > 1000 nM | > 1000 nM | > 1000 nM | COC/C=C1\CN2CCC[C@@]2(COc2nc3c4c(nc(-c5c6c(cc7[nH]ncc57)CCC[C@H]6OC)c(F)c4n2)OC[C@@H]2COCCCN32)C1 (relative stereo) [Example 59, (8aS)-4-fluoro-2-{[(2Z,7aS)-2-(2-methoxyethylidenetetrahydro-1H-pyrrolizin-7a(5H)-yl]methoxy}-5-[(5R*)-5-methoxy-5,6,7,8-tetrahydro-1H-benzo[f]indazol-4-yl]-8a,9,12,13-tetrahydro-8H,11H-7,10-dioxa-1,3,6,13a-tetraazanaphtho[1,8-ab]heptalene] |
| > 1000 nM | > 1000 nM | > 1000 nM | > 1000 nM | C=C1CN2CCC[C@@]2(COc2nc3c4c(nc(-c5c6c(cc7[nH]ncc57)CCC[C@H]6OC)c(F)c4n2)OC[C@@H]2COCCCN32)C1 (single isomer, unassigned) [Example 57, (8aS)-4-fluoro-5-[(5R*)-5-methoxy-5,6,7,8-tetrahydro-1H-benzo[f]indazol-4-yl]-2-{[(7aS)-2-methylidenetetrahydro-1H-pyrrolizin-7a(5H)-yl]methoxy}-8a,9,12,13-tetrahydro-8H,11H-7,10-dioxa-1,3,6,13a-tetraazanaphtho[1,8-ab]heptalene] |
